Experimental data taken from patent US9611253B2, “Solid forms comprising optically active pyrazolylaminoquinazoline, compositions thereof, and uses therewith” (AMBIT BIOSCIENCES CORPORATION, priority 2012, dated 2017).

How the values were obtained:
[1] = Solubility/crystallization screen of Compound 6 salts (20 mg salt, solvent, heating, then standing)
Description: The resulting solids were analyzed by DSC and portions of each salt were tested for solubility and crystallization from the following solvents:
20 mg of salt was charged to a 1-dram screw-top vial. Solvent (enough to cover the solids) was added, the vial was capped and heated (heat gun) to aid dissolution. If no, or partial dissolution was observed, the vial was allowed to cool, additional solvent was added and the process repeated. The solubility was characterized as follows: Soluble (sol): the solids dissolved upon heating, Sparingly soluble (sp): the solids dissolved upon heating after two or more additions of solvent or Insoluble (I): complete dissolution could not be achieved. […] The vials containing solids were filtered and analyzed by DSC.

[2] = Stability of esylate salt in water and aqueous ethanol (dissociation to free base); type: physicochemical; details: in water and aqueous ethanol solutions
Source text: Spontaneous precipitation from the aqueous solution afforded Compound 6 as free base; a new crystalline XRPD pattern was observed (See FIG. 38). The free base of Compound 6 was partially precipitated upon water addition to the ethanol solution and was further recovered by evaporation of the ethanol: water solution. These observations indicate the esylate salt is unstable in water and aqueous ethanol due to dissociation.
A new crystalline XRPD pattern designated as Form A of the free base of Compound 6 was observed from precipitation in ethanol with water (antisolvent) when amorphous ethanesulfonate salt of Compound 6 was used. (FIG. 38, top pattern). Summary of the data obtained for Form A of the free base is shown below in Table 16. […] The Compound 6 free base was recovered by further evaporation of the aqueous ethanol solution. […] These observations indicate the esylate salt is unstable due to dissociation in water and aqueous ethanol solutions.

[3] = Solubility in ethanol observed during salt formation; type: physicochemical
Description: To a 2-L Morton flask equipped with a heating mantle, thermocouple, condenser and mechanical stirrer was charged (4-fluorophenyl)(4-((5-methyl-1H-pyrazol-3-yl)amino)quinazolin-2-yl)methanol free base (40.20 g, 115 mmol, 1.0 equiv.). Ethanol (1.6 L) was added and the suspension was stirred and heated to reflux (78° C., internal temperature) until dissolution of the suspension was observed. Ethanesulfonic acid (9.4 mL, 115 mmol, 1.0 equiv.) was charged to the resulting yellow solution. Reflux was maintained for 1 hour, then heating was discontinued and the reaction was allowed to cool to room temperature and stirred overnight. Stirring was stopped and the solids were allowed to settle. The reaction was filtered and the initial isolated product (R)-(4-fluorophenyl)(4-((5-methyl-1H-pyrazol-3-yl)amino)quinazolin-2-yl)methanol dried in a vacuum oven (45° C., ˜20 torr) for 3 days to produce 29.69 g, 65 mmol, 56% yield. The supernatant was concentrated and a second crop of the product was obtained and dried as the first to produce 10.52 g, 23 mmol, 20% yield.
The combined yield for the two crops was 76%. […] Higher yields of salt can be obtained by reducing the amount of ethanol. […]

[4] = standing 1 h after cooling to room temperature
[5] = standing 4 d after cooling to room temperature

Solubility in EtOH ([1]; Heating): sol
Solubility in H2O ([1]; Heating): sol
Solubility in IPA ([1]; Heating): sol
Solubility in MeOH ([1]; Heating): sol
Solubility/crystallization in EtOH [1, 4]: cryst
Solubility/crystallization in H2O [1, 4]: gels
Solubility/crystallization in IPA [1, 4]: cryst
Solubility/crystallization in MeOH [1, 4]: sol
Solubility/crystallization in EtOH [1, 5]: cryst
Solubility/crystallization in IPA [1, 5]: cryst
Solubility/crystallization in MeOH [1, 5]: sol
Stability of the salt (dissociation to free base) [2]: unstable
Solubility in ethanol compared to the free base [3]: higher solubility in ethanol
Structure (SMILES): CCS(=O)(=O)O [Ethanesulfonic acid]
